pKd: −log10 of the molar value.
What was measured:
classical pathway = assay: Classical pathway-specific ELISA-based complement inhibition assay (C4b deposition, IgM-coated plate, human serum); type: biochemical; conditions: single 500 µM concentration, triplicate, 1% normal human serum, unpaired t-test p < 0.05
Description: To carry out classical pathway ELISA-based inhibition assays, IgM was dissolved in coating buffer (100 mM Na2CO3/NaHCO3, pH 9.6) to a final concentration of 3 µg/mL and was dispensed into 96-well plates at 100 µL per well. Mannan was dissolved to 2 µg/mL and lipopolysaccharides (LPS) were dissolved to 10 µg/mL in coating buffer for use in lectin and alternative pathway inhibition assays, respectively. Immobilization was allowed to proceed overnight at 25 °C. The immobilization reagent was then removed, followed by three washes in washing buffer (50 mM Tris pH 8.0, 200 mM NaCl, 0.05% (v/v) Tween-20), and blocked using 100 µL of 1% (w/v) bovine serum albumin in PBS-T for 1 h at 37°C. Blocking buffer was removed and plates were washed three times in washing buffer. Next, 500 µM of each compound, 5% (v/v) DMSO, and 1% (v/v) normal human serum (Innovative Research) (final concentrations) were dissolved in classical/lectin pathway ELISA buffer (20 mM HEPES (pH 7.3), 0.1% (w/v) gelatin, 140 mM NaCl, 2 mM CaCl2, 0.5 mM MgCl2) and added to the IgM-coated plate for 1 h at 37 °C. For the lectin pathway-specific ELISAs shown in Figure 5D, we used C1q-depleted serum from CompTech at 2% (v/v) and thus the classical pathway assays for this analysis were also performed using serum from CompTech at 2% (v/v). For the alternative pathway, 20% (v/v) normal human serum (CompTech) (final concentration) and alternative pathway ELISA buffer (20 mM HEPES, (pH 7.5), 0.1% (w/v) gelatin, 140 mM NaCl, 2 mM CaCl2, 0.5 mM MgCl2) were used in place of classical/lectin pathway ELISA buffer. Plates were then washed three times in wash buffer and each well was filled with 100 µL of α-C4 (HYB 162-02, Santa Cruz Biotechnology) diluted 1:300 for classical and lectin pathway assays and 100 µL of C3b (WM-1, Sigma) diluted 1:300 for alternative pathway assays. Plates were again incubated at 37 °C for 1 h, washed three times, filled with 100 µL of HRP-conjugated goat-α-mouse secondary antibody (diluted 1:3000) (Thermo Scientific, Waltham, MA, USA), and rocked gently for 1 h at 25 °C. After three more washes, 50 µl of substrate (1-step Ultra TMB, Thermo Scientific, Waltham, MA, USA) was added to each well and rocked for 15 min in the dark at 25 °C. The reaction was stopped with 50 µL of 0.16 M sulfuric acid, and the plate was read at 450 nm using an EnSight multimode plate reader (Perkin-Elmer). Each column contained a positive control for full complement activity (5% (v/v) blank DMSO with 1% (v/v) serum) and a negative control for no complement activity (5% (v/v) blank DMSO and no serum). Positive controls (1% (v/v) serum, no inhibitor) were defined as 100% C4b or C3b signal whereas negative controls (no serum) were defined as 0% C4b or C3b signal for each column. Compounds that inhibited complement deposition relative to the control were then evaluated using the same assay setup across a two-fold variable concentration series for each compound (7.8–500 µM). […] All experiments were performed no less than three times.
Statistical analyses were performed using GraphPad Prism version 8. For complement inhibition assays, measures of statistical significance for single-dose experiments were assessed using unpaired Student’s t-tests compared to no inhibitor controls (pathway ELISAs) or non-binding control compounds (classical pathway ELISA). Statistical significance was defined as p < 0.05. Calculation of IC50 values from dose-dependent complement assays were obtained by non-linear regression analysis using a using an inhibitor vs. response model and with 95% confidence intervals reported. For non-linear regression analyses, the top and bottom of each curve were constrained to 100 and 0, respectively.

full-length C1r = target: T1, full-length C1r (Homo sapiens, UniProt P00736); assay: SPR dose-dependent binding, steady-state affinity
T1 construct: purchased Complement Technology (CompTech)
T1 sequence (P00736 18-463 limits assumed): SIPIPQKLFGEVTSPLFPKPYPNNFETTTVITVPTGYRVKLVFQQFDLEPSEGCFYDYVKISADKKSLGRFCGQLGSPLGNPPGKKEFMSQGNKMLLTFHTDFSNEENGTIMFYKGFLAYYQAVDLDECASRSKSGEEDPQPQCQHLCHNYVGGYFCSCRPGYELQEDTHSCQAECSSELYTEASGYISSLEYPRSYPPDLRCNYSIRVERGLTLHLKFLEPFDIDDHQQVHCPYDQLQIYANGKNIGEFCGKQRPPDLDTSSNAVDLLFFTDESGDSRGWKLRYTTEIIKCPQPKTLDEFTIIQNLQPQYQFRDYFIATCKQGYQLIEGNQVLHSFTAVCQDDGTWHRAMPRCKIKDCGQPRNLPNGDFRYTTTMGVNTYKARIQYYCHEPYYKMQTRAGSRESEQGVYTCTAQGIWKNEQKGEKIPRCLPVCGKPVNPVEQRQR
T1 sequence (P00736 464-705 limits assumed): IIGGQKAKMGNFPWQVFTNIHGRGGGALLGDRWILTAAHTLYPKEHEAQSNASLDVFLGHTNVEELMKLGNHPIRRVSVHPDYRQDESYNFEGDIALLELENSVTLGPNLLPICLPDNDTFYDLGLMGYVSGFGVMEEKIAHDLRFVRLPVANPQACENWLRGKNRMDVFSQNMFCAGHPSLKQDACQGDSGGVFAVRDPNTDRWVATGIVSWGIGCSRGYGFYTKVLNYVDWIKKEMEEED
Description: All SPR experiments were carried out using a Biacore T200 (GE Healthcare, Chicago, IL, USA) at 25 °C. For all experiments, a running buffer (HBS-T) of 20 mM HEPES (pH 7.3), 140 mM NaCl, 0.005% (v/v) Tween-20, 5% DMSO (v/v) was used. For each experiment, DMSO calibration curves ranging from 4% to 5.5% DMSO (v/v) were collected at the beginning, end, and every 50 cycles throughout the duration of the experiment. All experiments were performed using HC1500M sensor chips (Xantec, Duesseldorf, Germany). In total, 10 sensor chips and 16 ligand immobilized surfaces were created over the course of this study (detailed in Table S2). In all cases, C1r proteins were immobilized onto chip surfaces using amine-coupling chemistry with 1-ethyl-3-(3-dimethylaminopropyl)-carbodiimide) (EDC), N-hydroxysuccinimide (NHS), followed by ethanolamine. Briefly, 100 mM of EDC and NHS were mixed and injected to activate the chip surface followed by the C1r protein ligand captured at a defined resonance unit (RU) level, followed by reaction quenching with 100 mM ethanolamine pH 8.5. Flow cell 1 was always used as a reference cell (no ligand), unless otherwise noted. All sensorgrams were reference and blank subtracted and analyzed using T200 Evaluation Software (GE Healthcare, Chicago, IL, USA).
To further evaluate hit compounds from the initial SPR screen, dose-dependent SPR binding assays were carried out. Three replicate flow cells were used containing both low and high immobilization densities of C1r (see Table S2). Hit compounds were tested for dose-dependent binding to full-length C1r using a compound concentration range of 7.8–500 µM. T200 evaluation software was used to calculate steady-state affinities for each compound by fitting sensorgrams from each variable concentration injection dataset using a 1:1 Langmuir model of interaction constrained by a theoretical experimental binding response based on the mol. wt. of each compound and derived as stated above. KD values are reported as the mean ± the standard deviation from at least three independent measurements.

pKd (full-length C1r; 1:1 steady-state binding model, mean ± S.D. from three independent injection series, 25 °C): 3.14 | Ligand efficiency (LE) (full-length C1r; LE = ΔG/number of non-hydrogen atoms, ΔG = -RT x ln KD,C1r, using KD values of Fig. 3): 0.25
SMILES: CN1c2ccccc2N(C)C1c1ccccc1 [CMP-4]
inhibition of classical pathway (C4b deposition) relative to non-binding control compound (classical pathway): statistically significant inhibitory activity
